Assay results taken from patent US20260200928A1, “THERAPEUTIC COMPOUNDS” (Sanofi, priority 2022, published 2026).
pIC50: −log10 of the molar value.

Target: T1, human IL-17A (Homo sapiens, UniProt Q16552)
T1 construct: purchased R&D Systems 7955-IL/CF
T1 sequence (Q16552 24-155): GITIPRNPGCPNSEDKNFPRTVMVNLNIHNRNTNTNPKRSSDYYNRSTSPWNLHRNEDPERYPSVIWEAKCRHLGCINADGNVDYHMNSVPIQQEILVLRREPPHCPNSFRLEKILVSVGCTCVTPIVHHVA
Experiment: IL-17A AlphaLISA competition assay (block of IL-17A binding to its receptor IL-17RA)
Conditions: mean IC50 (n≥2), block of IL-17A binding to IL-17RA
Protocol: The ability of the compounds to block binding of IL-17A to its receptor, IL-17RA, was analysed in a competition assay using AlphaLISA technology (Perkin Elmer). The assay is a bead based AlphaLISA where the IL-17RA is captured on the acceptor bead via an Fc tag and IL-17A is captured on the streptavidin donor bead via a biotinylated anti-IL17A antibody.
Assay buffer was prepared by adding 0.05% Tween-20 (v/v) and 0.1% BSA to Phosphate Buffered Saline (PBS). The assay was carried out in 384-well white low volume plates (Perkin Elmer #6008359). 10 μL of a 7.5 nM stock of human recombinant IL-17A (R&D Systems 7955-IL/CF) diluted in assay buffer was dispensed into the assay plate and compounds or DMSO vehicle control were added in a volume of 75 nL using an acoustic dispenser (Beckman). The compounds were pre-incubated with the IL-17A for 30 min at room temperature prior to addition of 5 μL of a 5 nM stock of human recombinant IL-17RA/Fc chimera (R&D Systems 177-IR-100) diluted in assay buffer. The IL-17A was incubated with the receptor for a further 90 minutes at room temperature before addition of 5 μL of a mixture of anti-human Fc IgG acceptor beads (75 μg/mL, Perkin Elmer AL1030) and anti-IL-17A biotin conjugated antibody (5 nM, Abcam, #ab155575) in assay buffer. After a further 30 min incubation at room temperature, 5 μL of streptavidin donor beads (75 μg/mL, Perkin Elmer 6760002S) were added and the plate was incubated for 3 h in the dark.
The AlphaLisa signal was measured using the PheraSTAR plate reader (BMG). Data were analysed using GeneData Screener and fitted to a 4-parameter logistic equation. The IC50 values were calculated using the DMSO vehicle as the negative control and a high concentration (4 μM) of a reference IL-17A inhibitor as the positive control. All compounds were analysed at least in duplicate (n≥2).

SMILES	pIC50
COCC(c1ccnc(NC(=O)[C@@H](NC(=O)c2nonc2C2CC2)[C@H]2CC[C@H](C)CC2)c1)N1C[C@@H](C(F)(F)F)NC1=O (single isomer, unassigned) [Example 59]	7.21
C[C@H]1CC[C@H]([C@H](NC(=O)c2nonc2C2CC2)C(=O)Nc2cc(C[C@@H]3C[C@@H](C(F)(F)F)NC3=O)ccn2)CC1 [Example 152, 4-cyclopropyl-N—((S)-1-((1r,4S)-4-methylcyclohexyl)-2-oxo-2-((4-(((3R,5S)-2-oxo-5-(trifluoromethyl)pyrrolidin-3-yl)methyl)pyridin-2-yl)amino)ethyl)-1,2,5-oxadiazole-3-carboxamide]	5.69
COCC(c1ccnc(NC(=O)[C@@H](NC(=O)c2conc2C2CC2)[C@H]2CC[C@H](C)CC2)c1)N1C[C@@H](C(F)(F)F)NC1=O (single isomer, unassigned) [Example 126]	7.68
Cn1nccc1C(=O)N[C@H](C(=O)Nc1cc(C[C@H]2C[C@@H](C(F)(F)F)NC2=O)ccn1)C1CCC(F)(F)CC1 [Example 224, N-((S)-1-(4,4-difluorocyclohexyl)-2-oxo-2-((4-(((3S,5S)-2-oxo-5-(trifluoromethyl)pyrrolidin-3-yl)methyl)pyridin-2-yl)amino)ethyl)-1-methyl-1H-pyrazole-5-carboxamide]	6.87
CCc1nocc1C(=O)N[C@H](C(=O)Nc1cc(C(COC)N2C[C@@H](C(F)(F)F)NC2=O)ccn1)[C@H]1CC[C@H](C)CC1 (single isomer, unassigned) [Example 125]	7.89
COCC(c1ccnc(NC(=O)C(NC(=O)C(F)c2ccccc2)C2CCC(C)CC2)c1)N1CC(C(F)(F)F)NC1=O [Example 254, 2-fluoro-N-((S)-2-((4-((S)-2-methoxy-1-((S)-2-oxo-4-(trifluoromethyl)-imidazolidin-1-yl)ethyl)pyridin-2-yl)amino)-1-((1r,4S)-4-methylcyclohexyl)-2-oxoethyl)-2-phenylacetamide]	7.11
CCc1nonc1C(=O)N[C@H](C(=O)Nc1cc(CN2C[C@@H](C(F)(F)F)NC2=O)ccn1)[C@H]1CC[C@H](F)CC1 (single isomer, unassigned) [Example 290]	6.80
Cc1nonc1C(=O)N[C@H](C(=O)Nc1cc(CN2C[C@@H](C(F)(F)F)NC2=O)ccn1)C(C1CC1)C1CC1 [Example 18, N-((S)-1,1-dicyclopropyl-3-oxo-3-((4-(((S)-2-oxo-4-(trifluoromethyl)imidazolidin-1-yl)methyl)pyridin-2-yl)amino)propan-2-yl)-4-methyl-1,2,5-oxadiazole-3-carboxamide]	6.35
Cn1nccc1C(=O)N[C@H](C(=O)Nc1cc(CNC(=O)CCC(F)(F)F)ccn1)C(C1CC1)C1CC1 [Example 32, (S)—N-(1,1-dicyclopropyl-3-oxo-3-((4-((4,4,4-trifluorobutanamido)-methyl)pyridin-2-yl)amino)propan-2-yl)-1-methyl-1H-pyrazole-5-carboxamide]	5.25
Cn1nccc1C(=O)N[C@H](C(=O)Nc1cc(CN2C[C@@H](C(F)(F)F)NC2=O)ccn1)C(C1CC1)C1CC1 [Example 15, N-((S)-1,1-dicyclopropyl-3-oxo-3-((4-(((S)-2-oxo-4-(trifluoromethyl)imidazolidin-1-yl)methyl)pyridin-2-yl)amino)propan-2-yl)-1-methyl-1H-pyrazole-5-carboxamide]	6.70
CCc1nocc1C(=O)N[C@H](C(=O)Nc1cc([C@@H](COC)N2CC(F)(F)CNC2=O)ccn1)C1CCC(F)(F)CC1 [Example 178, N-((S)-2-((4-((S)-1-(5,5-difluoro-2-oxotetrahydropyrimidin-1(2H)-yl)-2-methoxyethyl)pyridin-2-yl)amino)-1-(4,4-difluorocyclohexyl)-2-oxoethyl)-3-ethylisoxazole-4-carboxamide]	7.28
Cn1nccc1C(=O)NC(C(=O)Nc1cc(Cc2cccc(=O)n2C)ccn1)C1CCC(F)(F)CC1 (stereo not drawn) [Example 37, N-(1-(4,4-difluorocyclohexyl)-2-((4-((1-methyl-6-oxo-1,6-dihydropyridin-2-yl)methyl)pyridin-2-yl)amino)-2-oxoethyl)-1-methyl-1H-pyrazole-5-carboxamide]	4.60
COCC(c1ccnc(NC(=O)C(NC(=O)C(F)(F)c2ccnn2C)C2CCC(C)CC2)c1)N1CC(C(F)(F)F)NC1=O (single isomer, unassigned) [Example 248]	7.27
CCc1conc1C(=O)NC(C(=O)Nc1cc([C@@H](CC)N2C[C@@H](C(F)(F)F)NC2=O)ccn1)C1CCC(F)(F)CC1 (stereo in doubt) [Example 208, N—((S)-1-(4,4-difluorocyclohexyl)-2-oxo-2-((4-((R)-1-((S)-2-oxo-4-(trifluoromethyl)imidazolidin-1-yl)propyl)pyridin-2-yl)amino)ethyl)-4-ethylisoxazole-3-carboxamide]	7.51
COCC(c1ccnc(NC(=O)[C@@H](NC(=O)c2ncsc2C)[C@H]2CC[C@H](C)CC2)c1)N1C[C@@H](C(F)(F)F)NC1=O (single isomer, unassigned) [Example 91]	6.92
COC[C@H](c1ccnc(NC(=O)[C@@H](NC(=O)c2ccnn2C(C)C)C2CC(F)(F)C2)c1)N1C[C@@H](C(F)(F)F)NC1=O [Example 262, N—((S)-1-(3,3-difluorocyclobutyl)-2-((4-((S)-2-methoxy-1-((S)-2-oxo-4-(trifluoromethyl)imidazolidin-1-yl)ethyl)pyridin-2-yl)amino)-2-oxoethyl)-1-isopropyl-1H-pyrazole-5-carboxamide]	6.70
CCc1nocc1C(=O)N[C@H](C(=O)Nc1cc(C(C)(C)N2C[C@@H](C(F)(F)F)NC2=O)ccn1)C1CCC(F)(F)CC1 [Example 173, N-((S)-1-(4,4-difluorocyclohexyl)-2-oxo-2-((4-(2-((S)-2-oxo-4-(trifluoromethyl)imidazolidin-1-yl)propan-2-yl)pyridin-2-yl)amino)ethyl)-3-ethylisoxazole-4-carboxamide]	6.73
CC(C)n1nccc1C(=O)N[C@H](C(=O)Nc1cc(C(NC(=O)CCC(F)(F)F)C2CC2)ccn1)C(C1CC1)C1CC1 (single isomer, unassigned) [Example 41]	6.55
CC(C)n1nccc1C(=O)NC(C(=O)Nc1cc(Cc2cccc(=O)n2C)ccn1)C1CCC(F)(F)CC1 (stereo not drawn) [Example 35, N-(1-(4,4-difluorocyclohexyl)-2-((4-((1-methyl-6-oxo-1,6-dihydropyridin-2-yl)methyl)pyridin-2-yl)amino)-2-oxoethyl)-1-isopropyl-1H-pyrazole-5-carboxamide]	4.63
COCC(NC(=O)CCC(F)(F)F)c1ccnc(NC(=O)[C@@H](NC(=O)c2nccn2C(C)C)C2CCC(F)(F)CC2)c1 (single isomer, unassigned) [Example 141]	6.19
CC1CCC(C(NC(=O)c2nonc2C2CC2)C(=O)Nc2cc(C(C)N3CC(C(F)(F)F)NC3=O)ccn2)CC1 [Example 238, 4-cyclopropyl-N-((S)-1-((1r,4S)-4-methylcyclohexyl)-2-oxo-2-((4-((R)-1-((S)-2-oxo-4-(trifluoromethyl)imidazolidin-1-yl)ethyl)pyridin-2-yl)amino)ethyl)-1,2,5-oxadiazole-3-carboxamide]	7.85
CCC(c1ccnc(NC(=O)C(NC(=O)c2ccnn2C(C)C)C2CCC(C)CC2)c1)N1CC(C(F)(F)F)NC1=O [Example 260, 1-isopropyl-N-((S)-1-((1r,4S)-4-methylcyclohexyl)-2-oxo-2-((4-((R)-1-((S)-2-oxo-4-(trifluoromethyl)imidazolidin-1-yl)propyl)pyridin-2-yl)amino)ethyl)-1H-pyrazole-5-carboxamide]	7.89
COCC(c1ccnc(NC(=O)[C@@H](NC(=O)c2nonc2C2CC2)C2CCC(F)(F)CC2)c1)[C@@H]1C[C@@H](C(F)(F)F)NC1=O (single isomer, unassigned) [Example 184, 4-Cyclopropyl-N—((S)-1-(4,4-difluorocyclohexyl)-2-((4-((R or S)-2-methoxy-1-((3S,5S)-2-oxo-5-(trifluoromethyl)pyrrolidin-3-yl)ethyl)pyridin-2-yl)amino)-2-oxoethyl)-1,2,5-oxadiazole-3-carboxamide]	6.20
CC(C)(C)OC(=O)N[C@H](C(=O)Nc1cc(COC(=O)NCC(F)(F)F)ccn1)C1CCC(F)(F)CC1 [Example 45, Tert-butyl (S)-(1-(4,4-difluorocyclohexyl)-2-oxo-2-((4-((((2,2,2-trifluoroethyl)carbamoyl)oxy)methyl)pyridin-2-yl)amino)ethyl)carbamate]	4.99
